Results as given in patent publication US20080003606A1, “DIAGNOSIS OF TAMOXIFEN SENSITIVITY” (priority 2004, published 2008).

Tested on: ER positive invasive breast cancer
Assay: Randomized trial of 2 years of adjuvant tamoxifen vs no adjuvant treatment, survival analysed by cyclin D1/A2 expression and CCND1 amplification
Assay type: in vivo, human
Details: for Overall Survival RR / Recurrence Free Survival RR: Cox univariate, ER+, tamoxifen vs control (1.00)
Method: During 1984-1991, 564 premenopausal patients or patients under 50 years with stage 11 (pT2 N0 M0, pT1 N1 M0 and pT2, N1 M0) invasive breast cancer were enrolled in a randomized trial of 2 years of adjuvant tamoxifen treatment with a daily dosage of either 40 mg (study center 1) or 20 mg (study center 2) or no adjuvant treatment (detailed in [14]).
All available archived primary tumor specimens were collected (n=500). Areas with invasive cancer were marked on the H&E stained slides and two 0.6 mm tissue cores were taken from each donor block and mounted in a recipient block using an automated arrayer ((ATA-27, Beecher Inc, WI, USA).
For cyclin A2 expression, only the fraction of positively staining nuclei were calculated (405 cases) and subdivided into five groups based on the following score: 0 (0-1%), 1 (2-10%), 2 (11-25%), 3 (26-50%) and 4 (>50%). For cyclin D1, the nuclear fraction and intensity as well as the cytoplasmic staining intensity was evaluated (463 cases). The nuclear fractions were divided into the following five subgroups: 0 (0%), 1 (1-25%), 2 (26-50%), 3 (51-75%) and 4 (>75%). The nuclear and cytoplasmic intensity was evaluated as absent=0, weak=1, intermediate=2 and strong=3. The TMA:s had previously been analyzed immunohistochemically for estrogen- (ER) and progesterone (PR) receptor status (anti-ER Clone 6F11 and anti-PgR Clone 16) using the Ventana Benchmark system (Ventana Medical Systems Inc., AZ, USA). In line with the clinically established cut-off used for hormone receptor assessment, tumors with more than 10% positively staining nuclei were considered positive.
For fluorescence in situ (FISH) analysis of CCND1 gene amplification, two direct-labeled probes were used, LSI cyclin D1 (11q13) SpectrumOrange against CCND1 (11q13) and CEP 11 SpectrumGreen (Vysis Inc., Illinois, USA) against the centromere of chromosome 11. The FISH analysis was performed according to the standard protocol recommended by the manufacturer and according to “LSI® Locus Specific Identifier DNA probes” from Vysis Inc., Illinois. Briefly, tissue sections were de-paraffinized in xylene and alcohol and air-dried. The slides were then microwave-treated in Target Retrieval Solution pH 7.3 (DAKO A/S, Glostrup, Denmark) for 5+5 minutes and treated with 100 μl pepsin (Digest-All 3, Zymed, California, USA) for 8 minutes in 37° C. and washed in water. The de-paraffinized slides were denatured in 70% formamide/2×SSC at 73° C. for 5 minutes followed by dehydration in graded ethanol. A denatured mixture of 1 μl LSI probe, 2 μl pH2O and 7 μl LSI hybridization buffer was added on each slide and incubated at 37° C. overnight. The slides were then washed with 0.4×SSC/0.3% Nonidet P40 at 37±1° C. for 2 minutes followed by a 2×SSC/0.1% NP40 wash at ambient temperature for 1 minute to remove non-specifically bound probe.
For evaluation, the CCND1 gene was considered amplified when the ratio of orange/green was >1. Non-amplified cases were classified as 0, cases with up to 10 copies as 1 and >10 copies as 2.
Baseline prognostic and patient characteristics between the original study group, patients with available FISH data (n=280) and patients without FISH data (n=284) were compared using the chi-square test to exclude the possibility of selection bias. Baseline prognostic and patients characteristics were also compared between amplified and non-amplified cases using the same approach as well as the marker distribution according to trial arm. For evaluation of treatment response, only tumors with >10% ER positivity were included. Kaplan-Meier and log-rank tests and univariate Cox regression analyses were used for recurrence free survival (RFS), breast cancer survival (BCS) and overall survival (OS).

[1] = Multivariate Cox model with A2 NF and interaction variable, adjusted for age, tumor size, NHG, Ki-67 and nodal status
[2] = Multivariate Cox model with CCND1 amplification and interaction variable, adjusted for age, tumor size, NHG, Ki-67 and nodal status
[3] = Multivariate Cox model with D1 NF and interaction variable, adjusted for age, tumor size, NHG, Ki-67 and nodal status
[4] = Multivariate Cox model with D1 NI and interaction variable, adjusted for age, tumor size, NHG, Ki-67 and nodal status
[5] = Multivariate Cox model, adjusted for age, tumor size, NHG, Ki-67 and nodal status

CC/C(=C(\c1ccccc1)c1ccc(OCCN(C)C)cc1)c1ccccc1 [tamoxifen]
tamoxifen effect (CCND1-amplified tumors without high cyclin D1 protein intensity or >50% cyclin D1 positive cells): clear adverse tamoxifen effect | Overall Survival RR (CCND1 amplified): 2.13 | Recurrence Free Survival RR (CCND1 amplified): 2.22 | Overall Survival RR (CCND1 not amplified): 0.43 | Recurrence Free Survival RR (CCND1 not amplified): 0.39 | Overall Survival RR (Cyclin A2 nf <10%): 0.72 | Recurrence Free Survival RR (Cyclin A2 nf <10%): 0.51 | Overall Survival RR (Cyclin A2 nf >10%): 0.92 | Recurrence Free Survival RR (Cyclin A2 nf >10%): 0.86 | Overall Survival RR (Cyclin D1 nf <25%): 0.65 | Recurrence Free Survival RR (Cyclin D1 nf <25%): 0.62 | Overall Survival RR (Cyclin D1 nf >25%): 0.78 | Recurrence Free Survival RR (Cyclin D1 nf >25%): 0.61 | Overall Survival RR (Cyclin D1 ni high): 0.77 | Recurrence Free Survival RR (Cyclin D1 ni high): 0.84 | Overall Survival RR (Cyclin D1 ni low/intermediate): 0.72 | Recurrence Free Survival RR (Cyclin D1 ni low/intermediate): 0.59 | Overall survival RR, Treatment tamoxifen vs control [1]: 0.64 | Recurrence free survival RR, Treatment tamoxifen vs control [1]: 0.46 | Overall survival RR, Treatment tamoxifen vs control [2]: 0.41 | Recurrence free survival RR, Treatment tamoxifen vs control [2]: 0.37 | Overall survival RR, Treatment tamoxifen vs control [3]: 0.67 | Recurrence free survival RR, Treatment tamoxifen vs control [3]: 0.62 | Overall survival RR, Treatment tamoxifen vs control [4]: 0.78 | Recurrence free survival RR, Treatment tamoxifen vs control [4]: 0.62 | Overall survival RR, Interaction variable tamoxifen × A2 nf [5]: 1.40 | Overall survival RR, Interaction variable tamoxifen × CCND1 [5]: 5.85 | Overall survival RR, Interaction variable tamoxifen × D1 nf [5]: 1.29 | Overall survival RR, Interaction variable tamoxifen × D1 ni [5]: 1.00 | Recurrence free survival RR, Interaction variable tamoxifen × A2 nf [5]: 1.93 | Recurrence free survival RR, Interaction variable tamoxifen × CCND1 [5]: 6.26 | Recurrence free survival RR, Interaction variable tamoxifen × D1 nf [5]: 0.98 | Recurrence free survival RR, Interaction variable tamoxifen × D1 ni [5]: 1.27 | difference in treatment response, multivariate interaction variable (node positive patients, CCND1-amplified tumors): more then nine-fold | 10 year RFS (node positive patients, amplified tumors, treated arm (untreated 68%)): 13% | difference in tamoxifen treatment effect (patients with CCND1-amplified tumors, multivariate interaction analyses): 6-9 fold | 10 years RFS (patients with amplified tumors, tamoxifen treated arm (untreated 62%)): 29% | 10 years OS (patients with amplified tumors, tamoxifen treated arm (untreated 74%)): 56% | proportional 10-year recurrence free survival (RFS) (patients with non-amplified tumors, treatment arm (control 44%)): 74% | 10-year overall survival (OS) (patients with non-amplified tumors, treatment arm (control 61%)): 78% | tamoxifen response (tumors with >10% positive cyclin A2 nuclei): lack of response | tamoxifen response (tumors with less than 10% positive cyclin A2 nuclei): responded well | tamoxifen response regarding recurrence free survival (RFS) (tumors with strong nuclear cyclin D1 staining intensity): did not respond
